Source: US20070155827A1, “USE OF BENZO-FUSED HETEROCYCLE SULFAMIDE DERIVATIVES FOR THE TREATMENT OF DEPRESSION” (priority 2005, published 2007)

Tested on: Male Wistar rats
Assay: Chronic Mild Stress Model (Chronic), sucrose consumption
Assay type: in vivo
Description: In the chronic mild stress (CMS) model rats subjected to a variety of mild stressors for a prolonged period of time show, among other behavioural, biochemical and physiological impairments, a substantial decrease in their responsiveness to rewarding stimuli. This deficit is usually monitored by a decrease in the consumption of the 1% sucrose solution, but can also be seen in other tests, such as place preference conditioning or intracranial self-stimulation. Since the subsensitivity to reward appears to reflect anhedonia (inability to experience pleasure), which is a core symptom of major depressive disorders, the CMS procedure may serve as a suitable research tool in studies into the mechanisms of antidepressant action.
Male Wistar rats were brought into the laboratory two months before the start of the experiment. Except as described below, the animals were singly housed with food and water freely available, and were maintained on a 12-h light/dark and in a constant temperature (22±2° C.) and humidity (50±5%) conditions.
The animals were first trained to consume a 1% sucrose solution; training consisted of eight 1 h baseline tests in which sucrose was presented, in the home cage, following 14 h food and water deprivation; the sucrose intake was measured by weighing pre-weighed bottles containing the sucrose solution, at the end of the test. Subsequently, sucrose consumption was monitored, under similar conditions, at weekly intervals throughout the whole experiment.
On the basis of their sucrose intakes in the final baseline test, the animals were divided into two matched groups. One group of animals was subjected to the chronic mild stress procedure for a period of 7 consecutive weeks. Each week of stress regime consisted of: two periods of food or water deprivation, two periods of 45 degree cage tilt, two periods of intermittent illumination (lights on and off every 2 h), two periods of soiled cage (250 ml water in sawdust bedding), one period of paired housing, two periods of low intensity stroboscopic illumination (150 flashes/min), and three periods of no stress. All stressors were 10-14 h of duration and were applied individually and continuously, day and night. Control animals were housed in separate rooms and had no contact with the stressed animals. They were deprived of food and water for the 14 h preceding each sucrose test, but otherwise food and water were freely available in the home cage.
The drugs were administered at approx. 10.00 and the weekly sucrose tests were carried out 24 h following the last drug injections. […]
All results obtained in this study were analyzed by multiple analyses of variance with three between-subjects factors (stress/control, drug treatments and successive sucrose tests). […]

`NS(=O)(=O)NC[C@H]1COc2cc(Cl)ccc2O1` [Compound #8, (2S)-(−)-N-(6-Chloro-2,3-dihydro-benzo[1,4]dioxin-2-ylmethyl)-sulfamide] was tested, and the “Treatment effect on sucrose intake vs vehicle, control animals” value (controls, 12, 30 or 60 mg/kg once daily i.p. for five weeks) was “did not cause significant Treatment effects” and the “Treatment effect on sucrose intake vs vehicle, stressed animals” value (stressed, 12, 30 or 60 mg/kg once daily i.p. for five weeks) was “did not cause significant Treatment effects”.
